Measured values: patent US20080293774A1, “Treatment of the Symptoms of Bladder Irritation” (UROGENE, priority 2005, published 2008)

Legend:
[1] = system: rhythmic reflex contractions of the bladder; experiment: complete bladder-outlet obstruction (isovolumetric) model of overactive bladder in the rat; type: in vivo, female Wistar rats; settings: i.v.; for maximum intravesical pressure: all doses tested (HP183 0.3, 1, 3 mg/kg; HP184 1, 3, 10 mg/kg; HP749 1.6, 3.5, 10.5 mg/kg)
Source text: The compounds of Table 1 have been evaluated in a conventional animal model of overactive bladder: the complete bladder-outlet obstruction model in the rat, referred to as “isovolumetric” model (K. Sugaya, Y. Ogawa, O, Nishizawa, W C De Groat, Decrease in intravesical saline volume during isovolumetric cystometry in the rat, Neurourol. Urodyn, 1997, 16:125-132). In this model, rhythmic reflex contractions of the bladder are induced in female Wistar rats in which the urethra has been ligatured.
The rats are anaesthetized and implanted with a jugular catheter for the intravenous administration of the compounds. A transurethral catheter is introduced into the bladder, through the bladder dome, so as to allow the infusion of a saline solution and measurement of the intravesical pressure. The urethra is ligatured in order to close off the bladder.
The bladder is infused (50 μl/min) via the transurethral catheter with a saline solution until uninhibited rhythmic contractions appear. The infusion is then stopped and the intravesical pressure is measured for a period of 60 min preceding the injection of the study compounds. The compounds to be studied are then injected via the jugular catheter, and the intravesical pressure is recorded for a period of 60 min. The intravenous administration of the compounds during this test limits the metabolization of HP749 and of HP184 to HP748 and HP183, respectively. The animals are sacrificed at the end of the experiment by means of an overdose of pentobarbital. A scheme of the experiment is given below.
The data from the experiment are analysed with the ELPHY software (a free version of which is accessible at the following address: http://www.unic.cnrs-gif.fr/software/software.htm). The parameters analysed are as follows: • Maximum intravesical pressure (MP, expressed in mmHg) • Threshold pressure (ThP, expressed in mmHg) compared with the carrier (FIG. 2B).

[2] = system: bladder contractions; settings: rats suffering from bladder irritation; cited from earlier work
[3] = human; cited from earlier work
[4] = all doses tested (HP183 0.3, 1, 3 mg/kg; HP184 1, 3, 10 mg/kg), 60 min recording, compared with the carrier
[5] = 60 min recording, compared with the carrier

Structure (SMILES)	frequency of rhythmic isovolumetric contractions [1, 4]	maximum intravesical pressure [1, 5]	frequency of bladder contractions related to bladder irritation [2]	frequency of bladder contractions ([1]; from the first dose of 0.3 mg/kg, dose-dependent)	metabolite formed by biotransformation [3]	frequency of rhythmic isovolumetric contractions ([1]; highest dose (10.5 mg/kg))	frequency of rhythmic isovolumetric contractions ([1]; lowest dose (HP749 1.6 mg/kg))
Cc1cn(Nc2ccncc2F)c2ccccc12 [HP183, N-(3-fluoro-4-pyridinyl)-3-methyl-1H-indol-1-amine]	no statistically significant effect	no statistically significant effect	–	–	–	–	–
CCCN(c1ccncc1F)n1cc(C)c2ccccc21 [HP184, N-(3-fluoro-4-pyridinyl)-N-propyl-3-methyl-1H-indol-1-amine]	no statistically significant effect	no statistically significant effect	slightly decreasing	–	–	–	–
c1ccc2c(c1)ccn2Nc1ccncc1 [HP748, N-(4-pyridinyl)-1H-indol-1-amine]	–	–	–	considerably and statistically significantly decreased	–	–	–
CCCN(c1ccncc1)n1ccc2ccccc21 [HP749, N-propyl-N-(4-pyridinyl)-1H-indol-1-amine]	–	did not demonstrate any effect	–	–	metabolized in human to compound (I)	increasing	decreasing
